Measurements: US11667651B2, “Aminopyridine derivatives as phosphatidylinositol phosphate kinase inhibitors” (HiberCell, Inc., priority 2017, dated 2023)

How the values were obtained:
PIP4K2A = molecular target: T1, PIP4K2A (Homo sapiens, UniProt P48426); assay: Kinase Assay PIP4K2 A (Table 2); format: biochemical; design: 4 nM PIP4K2A (full length protein, SignalChem); purchased SignalChem; details: compounds listed under IC50 bins
T1 sequence (P48426 1-406): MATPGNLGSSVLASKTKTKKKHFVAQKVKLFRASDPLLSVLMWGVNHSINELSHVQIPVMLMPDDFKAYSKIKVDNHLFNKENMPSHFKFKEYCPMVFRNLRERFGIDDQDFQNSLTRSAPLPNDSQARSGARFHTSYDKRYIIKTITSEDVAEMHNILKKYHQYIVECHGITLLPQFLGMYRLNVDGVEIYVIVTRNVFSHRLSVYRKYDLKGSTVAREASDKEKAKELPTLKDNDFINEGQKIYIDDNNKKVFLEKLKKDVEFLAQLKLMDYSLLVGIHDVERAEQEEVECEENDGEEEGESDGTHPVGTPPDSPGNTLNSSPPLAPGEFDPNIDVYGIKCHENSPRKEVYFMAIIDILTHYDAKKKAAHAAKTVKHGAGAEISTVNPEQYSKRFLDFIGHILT
Description: Dilution series of the compounds were prepared in DMSO at 100 times the final assay concentration (n1=n0/3 in 10 points). The compounds were further diluted to three times the assay concentration in assay buffer (20 mM MOPS pH 7.2, 25 mM magnesium chloride, 0.005% Tween 20). 6 μL of the diluted compounds were added to a 384 well assay plate followed by 9 μL of a mix consisting of 4 nM PIP4K2A (full length protein, SignalChem) and 100 μM PI(5)P diC8 (Tebu-Bio). Enzyme and compounds were pre-incubated at room temperature for 15 minutes.
Then 3 μL of a solution containing 60 μM ATP (Promega) in assay buffer was added to the wells containing compound and enzyme and mixing was performed by pipetting several times. The reaction was incubated at room temperature for 1 h. Then 18 μL of ADP-Glo™ Reagent (Promega) was added to stop the kinase reaction and deplete the unconsumed ATP, mixing was performed by pipetting several times. The plate was incubated at room temperature for 40 minutes before addition of 36 μL of Kinase Detection Reagent (Promega) to convert ADP to ATP and introduce luciferase and luciferin to detect ATP. The reaction was incubated at room temperature for 40 minutes before the luminescence was measured in a in a Victor 3V 1420 multilabel counter (Perkin Elmer).
Percent inhibition of the compounds as compared to dimethyl sulfoxide treated control samples was calculated. Compound concentration versus percent inhibition were fitted to generate IC50 values.

PIP4K2B = molecular target: T2, PIP4K2B (Homo sapiens, UniProt P78356); assay: Trans-FI P kinase assay PIP4K2B (Table 4); format: biochemical; details: compounds listed under IC50 bins; read-out: Trans-FI P kinase assays: PIP4K2B IC50
T2 construct: made in house; host or cells: E. coli
T2 sequence (P78356 1-416): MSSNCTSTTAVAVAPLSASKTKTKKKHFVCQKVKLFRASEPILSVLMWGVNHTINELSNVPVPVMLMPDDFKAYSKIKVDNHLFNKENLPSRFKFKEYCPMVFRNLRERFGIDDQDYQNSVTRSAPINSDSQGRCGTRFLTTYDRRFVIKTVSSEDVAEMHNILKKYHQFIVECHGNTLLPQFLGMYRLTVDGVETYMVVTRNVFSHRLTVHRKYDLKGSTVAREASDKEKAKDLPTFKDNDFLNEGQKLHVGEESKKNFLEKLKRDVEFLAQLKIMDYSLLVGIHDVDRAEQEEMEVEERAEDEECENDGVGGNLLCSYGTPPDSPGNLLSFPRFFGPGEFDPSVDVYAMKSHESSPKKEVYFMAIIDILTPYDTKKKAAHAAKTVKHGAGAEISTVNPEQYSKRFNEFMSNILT
Source text: GST tagged PIP4KtypeIIA and B enzymes were overexpressed in E. Coli and purified to >80% homogeneity. Phosphatidyl inositol-5-phosphate (PI5P, Cat. #850152, Avanti Polar Lipids Inc.) was used as the lipid substrate and phosphatidyl ethanolamine (DOPE 18:1, Cat. #850725, Avanti Polar Lipids Inc.) was used as the carrier lipid for assays. Ultrapure ATP and GTP was purchased from Bellbrooke Labs. ADP Glo reagents were obtained from Promega. Transcreener FI reagent was obtained from Bellbrooke labs.
GST-tagged PIP4KtypeIIB (3.4 μL, 2.77 mg/mL) was diluted to 5 mL using HNE buffer to yield 5× enzyme stock (25 nM)
Lipid Preparation: In a 10 mL pyrex glass vial, […] were suspended in 2.5 mL of HEPES buffer mix and 2.5 mL of H:E buffer. The contents were mixed and sonicated for 3 min to yield a translucent lipid stock.
Compound Preparation: Compounds were stored as 5 mM stocks in neat DMSO as room temperature in glass vials. 5 mM stocks were diluted to 2 mM and then serially diluted (3×) in neat DMSO in 96 well polypropylene plates. From the serially diluted stocks, 3 μL was delivered into 250 μL of 25% DMSO (in water) to generate 5× compound stocks. Typically, the highest compound conc. was 24 μM.
The assay volume was kept at 25 μL. To each well of the reaction plate, 10 μL of lipid stock (1:1 ratio PI5P:DOPE) was delivered. This was followed by the addition of 5 μL of compound in 25% DMSO. Then, to each well, 5 μL of 25 nM (5×) typeIIB enzyme was delivered. The contents were mixed well and incubated for 1 h at 27° C. After 1 h, reaction was initiated by adding 5 μL of 500 μM GTP and the contents were mixed well with a multi-channel pipetteman. The final concentration of the reagents are as follows: 50 mM HEPES, pH 7.3, 10 mM MgCl2, 20 mM NaCl, 0.01% v/v triton-X100, 5% DMSO, 100 μM GTP, 80 μM (2 μg) PI5P, 2 μg DOPE, and 5 nM PIP4KIIB Typically, the highest conc. of compounds was 4.8 μM and the lowest conc. was 0.
After 2 h, the reaction was quenched by adding 25 μL of transcreener FI reagent. The contents were incubated at rt for 1 h and the Fluorescence (Ex: 584 Em: 623) was read using Molecular Devices Paradigm plate reader. […] The blanks were averaged and subtracted from all other wells. Using a calibration curve, RFU was converted to μM GDP (product). IC50 was calculated by plotting the residual activity (expressed as % No inhibitor control) vs. log [Inh. conc.]

CN(C)C(=O)c1ccc(-c2ccc(Nc3cnc4c(c3)NC(=O)CO4)nc2)cc1 [Example 88, N,N-dimethyl-4-(6-((2-oxo-2,3-dihydro-1H-pyrido[2,3-b][1,4]oxazin-7-yl)amino)pyridin-3-yl)benzamide]
IC50 (PIP4K2A): 0.1 to 1 µM | IC50 (PIP4K2B): > 1 µM

CN(C)C(=O)c1ccc(-c2ccc(Nc3cnc4c(c3)N(C(=O)C3CC3)CCO4)nc2)cc1 [Example 90, 4-(6-((1-(cyclopropanecarbonyl)-2,3-dihydro-1H-pyrido[2,3-b][1,4]oxazin-7-yl)amino)pyridin-3-yl)-N,N-dimethylbenzamide]
IC50 (PIP4K2A): 0.001 to 0.01 µM | IC50 (PIP4K2B): 0.01 to 0.1 µM

CC(=O)OC(C)C(=O)N1CCOc2ncc(Nc3ccc(-c4ccc(C(=O)N(C)C)cc4)cn3)cc21 (stereo not drawn) [Example 91, 1-(7-((5-(4-(dimethylcarbamoyl)phenyl)pyridin-2-yl)amino)-2,3-dihydro-1H-pyrido[2,3-b][1,4]oxazin-1-yl)-1-oxopropan-2-yl acetate]
IC50 (PIP4K2A): 0.01 to 0.1 µM | IC50 (PIP4K2B): 0.01 to 0.1 µM

CC(O)C(=O)N1CCOc2ncc(Nc3ccc(-c4ccc(C(=O)N(C)C)cc4)cn3)cc21 (stereo not drawn) [Example 92, 4-(6-((1-(2-hydroxypropanoyl)-2,3-dihydro-1H-pyrido[2,3-b][1,4]oxazin-7-yl)amino)pyridin-3-yl)-N,N-dimethylbenzamide]
IC50 (PIP4K2A): 0.001 to 0.01 µM | IC50 (PIP4K2B): 0.01 to 0.1 µM

COC(=O)N1CCOc2ncc(Nc3ccc(-c4ccc(C(=O)N(C)C)cc4)cn3)cc21 [Example 93, methyl 7-((5-(4-(dimethylcarbamoyl)phenyl)pyridin-2-yl)amino)-2,3-dihydro-1H-pyrido[2,3-b][1,4]oxazine-1-carboxylate]
IC50 (PIP4K2A): 0.001 to 0.01 µM | IC50 (PIP4K2B): 0.01 to 0.1 µM

CN(C)C(=O)c1ccc(-c2ccc(Nc3cnc4c(c3)N(C(=O)C(C)(C)C)CCO4)nc2)cc1 [Example 97, N,N-dimethyl-4-(6-((1-pivaloyl-2,3-dihydro-1H-pyrido[2,3-b][1,4]oxazin-7-yl)amino)pyridin-3-yl)benzamide]
IC50 (PIP4K2A): 0.001 to 0.01 µM | IC50 (PIP4K2B): 0.01 to 0.1 µM

CN(C)C(=O)c1ccc(-c2ccc(Nc3cncc(NC(=O)c4cccc(N)c4)c3)nc2)cc1 [Example 99, 4-(6-((5-(3-aminobenzamido)pyridin-3-yl)amino)pyridin-3-yl)-N,N-dimethylbenzamide]
IC50 (PIP4K2A): 0.01 to 0.1 µM | IC50 (PIP4K2B): 0.01 to 0.1 µM

CN(C)C(=O)c1ccc(-c2ccc(Nc3cncc(N)c3)nc2)cc1 [Example 115, 4-(6-((5-aminopyridin-3-yl)amino)pyridin-3-yl)-N,N-dimethylbenzamide]
IC50 (PIP4K2A): 0.1 to 1 µM | IC50 (PIP4K2B): > 1 µM

CN1C[C@H]2COc3ncc(Nc4ccc(-c5ccc(N6CCCC6=O)cc5)cn4)cc3N2S1(=O)=O [Example 175, (S)-1-(4-(6-((2-methyl-1,1-dioxido-2,3,3a,4-tetrahydropyrido[2,3-b][1,2,5]thiadiazolo[2,3-d][1,4]oxazin-8-yl)amino)pyridin-3-yl)phenyl)pyrrolidin-2-one]
IC50 (PIP4K2A): 0.1 to 1 µM | IC50 (PIP4K2B): 0.01 to 0.1 µM

COCc1nc(Nc2cnc3c(c2)N2C(=O)C4(CC4)C[C@H]2CO3)ncc1-c1ccc(N2CCCC2=O)cc1 [Example 202, (S)-2′-((4-(methoxymethyl)-5-(4-(2-oxopyrrolidin-1-yl)phenyl)pyrimidin-2-yl)amino)-6a′,7′-dihydro-6′H,9′H-spiro[cyclopropane-1,8′-pyrido[2,3-b]pyrrolo[1,2-d][1,4]oxazin]-9′-one]
IC50 (PIP4K2A): 0.001 to 0.01 µM | IC50 (PIP4K2B): 0.001 to 0.01 µM

CC(C)c1nc(Nc2cnc3c(c2)N2C(=O)CC[C@H]2CO3)ncc1-c1ccc(N2CCCC2=O)cc1 [Example 215, (S)-2-((4-isopropyl-5-(4-(2-oxopyrrolidin-1-yl)phenyl)pyrimidin-2-yl)amino)-6,6a,7,8-tetrahydro-9H-pyrido[2,3-b]pyrrolo[1,2-d][1,4]oxazin-9-one]
IC50 (PIP4K2A): ≤ 0.001 µM | IC50 (PIP4K2B): 0.001 to 0.01 µM

CN(C)C(=O)c1ccc(-c2cnc(Nc3cccnc3)nc2)cc1 [Example 264, N,N-dimethyl-4-(2-(pyridin-3-ylamino)pyrimidin-5-yl)benzamide]
IC50 (PIP4K2A): 0.1 to 1 µM

Cn1cnnc1N1CC=C(c2ccc(Nc3cnc4c(c3)N3C(=O)CC[C@H]3CO4)nc2)CC1 [Example 274, (S)-2-((1′-(4-methyl-4H-1,2,4-triazol-3-yl)-1′,2′,3′,6′-tetrahydro-[3,4′-bipyridin]-6-yl)amino)-6,6a,7,8-tetrahydro-9H-pyrido[2,3-b]pyrrolo[1,2-d][1,4]oxazin-9-one]
IC50 (PIP4K2A): 0.1 to 1 µM | IC50 (PIP4K2B): 0.01 to 0.1 µM

Cn1cnnc1N1CCN(c2ccc(Nc3cnc4c(c3)N3C(=O)CC[C@H]3CO4)nc2)CC1 [Example 275, (S)-2-((5-(4-(4-methyl-4H-1,2,4-triazol-3-yl)piperazin-1-yl)pyridin-2-yl)amino)-6,6a,7,8-tetrahydro-9H-pyrido[2,3-b]pyrrolo[1,2-d][1,4]oxazin-9-one]
IC50 (PIP4K2A): 0.1 to 1 µM | IC50 (PIP4K2B): 0.01 to 0.1 µM

Cc1ccnnc1-c1ccc(-c2ccc(Nc3cnc4c(c3)N3C(=O)CC[C@H]3CO4)nc2)cc1 [Example 276, (S)-2-((5-(4-(4-methylpyridazin-3-yl)phenyl)pyridin-2-yl)amino)-6,6a,7,8-tetrahydro-9H-pyrido[2,3-b]pyrrolo[1,2-d][1,4]oxazin-9-one]
IC50 (PIP4K2A): 0.001 to 0.01 µM | IC50 (PIP4K2B): 0.001 to 0.01 µM

Cc1cnoc1-c1ccc(-c2ccc(Nc3cnc4c(c3)N3C(=O)CC[C@H]3CO4)nc2)cc1 [Example 277, (S)-2-((5-(4-(4-methylisoxazol-5-yl)phenyl)pyridin-2-yl)amino)-6,6a,7,8-tetrahydro-9H-pyrido[2,3-b]pyrrolo[1,2-d][1,4]oxazin-9-one]
IC50 (PIP4K2A): 0.001 to 0.01 µM | IC50 (PIP4K2B): 0.01 to 0.1 µM

Cc1cnnn1-c1ccc(-c2cnc(Nc3cnc4c(c3)N3C(=O)CC[C@H]3CO4)nc2C(C)C)cc1 [Example 278, (S)-2-((4-isopropyl-5-(4-(5-methyl-1H-1,2,3-triazol-1-yl)phenyl)pyrimidin-2-yl)amino)-6,6a,7,8-tetrahydro-9H-pyrido[2,3-b]pyrrolo[1,2-d][1,4]oxazin-9-one]
IC50 (PIP4K2A): ≤ 0.001 µM | IC50 (PIP4K2B): 0.001 to 0.01 µM
